Holding throughout (format): cell-based
In one test the test system is Cyclin D. Briefly: Mechanistic study: Cyclin D western blot with or without epoxomicin. As to conditions: ES-2, 18 hours. The method, then:
In order to establish that the decrease in Cyclin D seen after Compound 42 treatment is due to proteasomal degradation, ES-2, ovarian cancer cell line was treated with Compound 42 (250 nM) in the presence or absence of epoxomicin, a specific inhibitor of the proteasome (60 nM) for 18 hours. Following the treatment, western blotting for Cyclin D (FIG. 10A), Ub (FK-2) (FIG. 10B), and GAPDH control (bottom blot, below FIGS. 10A and 10B) was performed. Epoxomicin is a specific inhibitor of the proteasome.

Another test relates to Rb. Briefly: Western blot of cellular biomarker Rb. The protocol:
(§1) Various cancer cells lines were treated with Compound 42 or palbociclib (control) to measure the expression of cyclin D, cyclin E, pRb, and Rb.
(§2) Day 1: 6 well plate was seeded with 3×10^5 cells/well with a final volume of 3 mL and incubated for 24 hours at 37° C.
(§3) Day 2: The media was removed and Compound 42 (see below for dose) or palbociclib (1 μM) as positive control were added to the wells the desired concentration in cell culture media, giving a final volume of 3 mL per well. The plate was incubated for 24 hours at 37° C. (or desired period).
(§4) Day 3: The media was removed from wells and washed ×3 with PBS. 500 μl of trypsin was added to the wells and incubate until cells detach. 500 μl media was added to neutralise trypsin, transferred to 2 ml Eppendorfs, and centrifuged (1500 RPM for 5 minutes). While spinning, the wells were washed with 1 mL PBS to collect any remaining cells. This wash was used to centrifuged cell pellet. After the first spin, the supernatant was discarded and the pellet was washed with PBS collected from the previous step. The centrifugation step was repeated and the supernatant was discarded and the pellet wash again with fresh PBS. The centrifugation and wash with PBS was repeated one more time. RIPA cell lysate buffer was prepared and Protease Inhibitor Cocktail was included. The supernatant was discarded and […] RIPA cell lysate buffer was added to the pellet. The protein concentration was determined using the BCA assay kit.
(§5) Day 4: Western blot analysis was performed. 4-12% Bis-Tris gel and MOPS running buffer was used. The running buffer was made to sufficient volume of running buffer to 1× concentration. 20 μg protein (v/v loading & reducing buffer) of each sample was loaded into wells. Some proteins may require more, or less, protein loaded. The gel was ran at standard settings 200 V for 45 minutes. […] The membrane was blocked using 5% non-fat powdered milk* made up in 1×TBS containing 0.1% Tween (TBS-T and incubated for 1 hr with gentle rocking. The observation from the Western blot analysis is quantified in FIGS. 2-7D. […]
Background: In western blotting, separated proteins are transferred to a membrane and probed.

The subject of another test is pRb. Briefly: Western blot of cellular biomarker pRb. The method, then:
as §1, §2, §3, §4, §5

A further test has as its system MSTO-211H. Briefly: Cell proliferation assay. As to conditions: Homo sapiens, 72 hrs, read-out: Cell Viability: IC50. The essentials: (§6)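 Cells seeded at 4×10^4 cells/ml and left overnight at 37° C., 5% CO2, then given compound at varying concentrations in triplicate for 72 hrs. Proliferation was read by acid phosphatase assay (10 mM p-nitrophenol phosphate, pH 5.5, 2 hours, 37° C.) at 405 nm minus 620 nm, as % inhibition versus DMSO controls.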

The subject of a further test is MDA-MB-436. Briefly: Cell proliferation assay. As to conditions: Homo sapiens, 72 hrs, read-out: Cell Viability: IC50. A digest of the protocol:
as §6

The test system of another test is ZR-75-1. Briefly: Cell proliferation assay. Particulars: Homo sapiens, 72 hrs, read-out: Cell Viability: IC50. A digest of the protocol:
as §6

For another test, the system named is COV504. Description: Cell proliferation assay. Particulars: 72 hrs, read-out: Cell Viability: IC50. A digest of the protocol:
as §6

Another test has as its system RKO. Briefly: Cell proliferation assay. Particulars: Homo sapiens, 72 hrs, read-out: Cell Viability: IC50. The essentials:
as §6

A further test has as its system T-47D. Briefly: Cell proliferation assay. As to conditions: Homo sapiens, T47D, 72 hrs, read-out: Cell Viability: IC50. A digest of the protocol:
as §6

A further test has as its system LOVO. Description: Cell proliferation assay. Particulars: Homo sapiens, 72 hrs, read-out: Cell Viability: IC50. A digest of the protocol:
as §6

A further test deals with SK-CO-1. Briefly: Cell proliferation assay. As to conditions: Homo sapiens, 72 hrs, read-out: Cell Viability: IC50. The essentials: as §6
The test system of another test is SW480. Description: Cell proliferation assay. Particulars: Homo sapiens, 72 hrs, read-out: Cell Viability: IC50. A digest of the protocol:
as §6

Another test has as its system Calu-1. Briefly: Cell proliferation assay. As to conditions: Homo sapiens, 72 hrs, read-out: Cell Viability: IC50. A digest of the protocol:
as §6

A further test relates to SK-BR-3. Description: Cell proliferation assay. Particulars: Homo sapiens, 72 hrs, read-out: Cell Viability: IC50. A digest of the protocol:
as §6

Another test concerns SW948. Briefly: Cell proliferation assay. As to conditions: Homo sapiens, 72 hrs, read-out: Cell Viability: IC50. The essentials: as §6
A further test deals with KPL-1. Description: Cell proliferation assay. Particulars: 72 hrs, read-out: Cell Viability: IC50. The essentials: as §6
For the next test, the system named is SK-LU-1. Description: Cell proliferation assay. Particulars: Homo sapiens, 72 hrs, read-out: Cell Viability: IC50. A digest of the protocol:
as §6

Setting [1] is: HT116, with increasing concentration.
The mark [2] stands for this setting: OAW42, 250 nM Compound 42, 24 hours, compared to palbociclib 1 μM.

In the case of `Cc1ccccc1C(=O)Nc1nc(NC(=O)c2ccccc2C)n(-c2ccc(OC(F)(F)F)cc2)n1` [Compound 42, N,N′-(1-(4-(trifluoromethoxy)phenyl)-1H-1,2,4-triazole-3,5-diyl)bis(2-methylbenzamide)], the “cyclin D levels” value was “induced cyclin D levels to decrease” with Cyclin D (Compound 42 250 nM alone); “decreases cyclin D levels” in the test with Cyclin D (Compound 42 250 nM alone, listed as compound 42); “returned cyclin D levels to normal (or slightly above)” in the test on Cyclin D (Compound 42 250 nM in the presence of epoxomicin 60 nM); “counterbalanced by adding epoxomicin” with Cyclin D (Compound 42 250 nM in the presence of epoxomicin 60 nM, listed as compound 42). Also, the Rb expression result in the test with Rb (ES-2, 250 nM Compound 42, 24 hours, compared to palbociclib 1 μM) was “reduction of Rb expression”; with Rb (setting [1]) it was “reduction”; with Rb (setting [2]), “reduction of Rb expression”. Besides, the pRb expression entry is listed as “some reduction of pRb expression” in the test on pRb (A2780, 250 nM Compound 42, 24 hours, compared to palbociclib 1 μM); “reduction” in the test on pRb (setting [1]); “reduction of pRb expression” with pRb (setting [2]).
As for `Cc1ccccc1C(=O)Nc1nc(NC(=O)c2ccccc2C)n(-c2ccccc2)n1` [Compound F, 2-methyl-N-[5-[(2-methylbenzoyl)amino]-1-phenyl-1,2,4-triazol-3-yl]benzamide], the IC50 (in general, the point on the concentration scale where inhibition reaches its midpoint) came to 2.31 µM with MSTO-211H; 6.55 µM in the test on MDA-MB-436; 3.87 µM in the test on ZR-75-1; 2 µM with COV504; 4.12 µM with RKO; 7.37 µM in the test on T-47D. Moreover, the IC50 was determined as 5.64 µM in the test with LOVO; 0.98 µM in the test on SK-CO-1; 3.49 µM with SW480; 43.3 µM in the test on Calu-1; 3.05 µM in the test on SK-BR-3; 8.37 µM in the test with SW948. For the same compound, the figures for the half-inhibitory concentration (IC50) in the test on KPL-1 and in the test with SK-LU-1 were 3.86 µM and 5.73 µM, respectively.

Values taken from patent publication US20210244712A1, “METHODS FOR TREATING PATIENTS WITH CANCER HAVING DEFECTS IN CYCLIN D REGULATION” (NysnoBio Ireland DAC, priority 2018, published 2021).
